Assay results from patent US10947252B2, “Inhibitors of KEAP1-Nrf2 protein-protein interaction” (Janssen Pharmaceutica NV, priority 2018, dated 2021).

Columns and labels:
[1] = biological target: Kelch domain of human KEAP1 (321-624 aa) (Homo sapiens (Human), UniProt Q14145); experiment: KEAP1 KELCH ThermoFluor binding assay; conditions: KEAP Kelch […], 1,8-ANS, pH 7.0, average of results obtained, read-out: Tf Kd;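 also: Ligand-induced melting temperature shift of E. coli-expressed KEAP1 Kelch protein, Kd estimated from concentration-response curves of ΔTm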
Kelch domain of human KEAP1 (321-624 aa), sequence (Q14145 321-624): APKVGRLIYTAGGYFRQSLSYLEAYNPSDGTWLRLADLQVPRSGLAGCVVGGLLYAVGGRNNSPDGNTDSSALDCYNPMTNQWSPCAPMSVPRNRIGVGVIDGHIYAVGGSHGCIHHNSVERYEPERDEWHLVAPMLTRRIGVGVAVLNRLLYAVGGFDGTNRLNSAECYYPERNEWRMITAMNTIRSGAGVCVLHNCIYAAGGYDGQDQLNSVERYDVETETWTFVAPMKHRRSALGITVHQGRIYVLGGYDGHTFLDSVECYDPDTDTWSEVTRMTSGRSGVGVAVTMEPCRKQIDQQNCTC

[2] = tested on: Glo-Response ARE-luc2P HEK293 cell line; experiment: ARE luciferase reporter cell-based assay; conditions: Homo sapiens, HEK293, 24 h, average of results obtained;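 also: luciferase signal tracks Nrf2 activation of the ARE once compounds disrupt KEAP1-Nrf2 binding, read with One-Glo reagent, DMSO serving as low control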

SMILES | Kd [1] [nM] | EC50 [2] [nM]
Cc1ccc([C@H](c2ccn3c(C(F)(F)F)nnc3c2C)C(C)(C)C(=O)O)cc1CN1CC2(CCOCC2)Oc2nc(OCCN3CCOCC3)ccc2S1(=O)=O (single isomer, unassigned) [Example 48, (*R)-2,2-Dimethyl-3-(4-methyl-3-((7′-(2-morpholinoethoxy)-1′,1′-dioxido-2,3,5,6-tetrahydrospiro[pyran-4,4′-pyrido[2,3-b][1,4,5]oxathiazepin]-2′(3′H)-yl)methyl)phenyl)-3-(8-methyl-3-trifluoromethyl)-[1,2,4]triazolo[4,3-a]pyridine-7-yl)propanoic Acid] | 820 | 6270
CCn1nnc2c(C)c([C@@H](CC(=O)O)c3ccc(C)c(CN4C[C@@H]5CCCN5c5ncccc5S4(=O)=O)c3)ccc21 (single isomer, unassigned) [Example 156, (*S)-3-(3-(((S)-5,5-Dioxido-7a,8,9,10-tetrahydropyrido[2,3-f]pyrrolo[2,1-d][1,2,5]thiadiazepin-6(7H)-yl)methyl)-4-methylphenyl)-3-(1-ethyl-4-methyl-1H-benzo[d][1,2,3]triazol-5-yl)propanoic Acid] | 2.1 | 3.6
Cc1ccc(C(CC(=O)O)c2ccc3c(nnn3CC3CC3)c2C)cc1CN1C[C@@H]2CCCCN2c2ncccc2S1(=O)=O (mixture of isomers) [Example 231, (R/S)-3-(1-(Cyclopropylmethyl)-4-methyl-1H-benzo[d][1,2,3]triazol-5-yl)-3-(3-(((*S)-5,5-dioxido-7,7a,8,9,10,11-hexahydro-6H-dipyrido[2,1-d:2′,3′-f][1,2,5]thiadiazepin-6-yl)methyl)-4-methylphenyl)propanoic Acid] | < 1 | 7
Cc1ccc(C(CC(=O)O)c2ccn3c(C(F)F)nnc3c2C)cc1CN1CC2(COC2)Oc2ncccc2S1(=O)=O (stereo not drawn) [Example 469, 3-(3-(Difluoromethyl)-8-methyl-[1,2,4]triazolo[4,3-a]pyridin-7-yl)-3-(3-((1′,1′-dioxidospiro[oxetane-3,4′-pyrido[2,3-b][1,4,5]oxathiazepin]-2′(3′H)-yl)methyl)-4-methylphenyl)propanoic Acid] | < 1 | 608
Cc1ccc([C@@H](c2ccn3c(C(F)(F)F)nnc3c2C)C(C)(C)C(=O)O)nc1CN1CC2(CCOCC2)Oc2ncccc2S1(=O)=O (single isomer, unassigned) [Example 38, (*S)-3-(6-((1′,1′-Dioxido-2,3,5,6-tetrahydrospiro[pyran-4,4′-pyrido[2,3-b][1,4,5]oxathiazepin]-2′(3′H)-yl)methyl)-5-methylpyridin-2-yl)-2,2-dimethyl-3-(8-methyl-3-(trifluoromethyl)-[1,2,4]triazolo[4,3-a]pyridin-7-yl)propanoic Acid] | < 1 | 7.2
Cc1ncc([C@H](c2ccc3c(nnn3C3CC3)c2C)C(C)(C)C(=O)O)cc1CN1CC2(COC2)Oc2ncccc2S1(=O)=O (single isomer, unassigned) [Example 612, (*S)-3-(1-Cyclopropyl-4-methyl-1H-benzo[d][1,2,3]triazol-5-yl)-3-(5-((1′,1′-dioxidospiro[oxetane-3,4′-pyrido[2,3-b][1,4,5]oxathiazepin]-2′(3′H)-yl)methyl)-6-methylpyridin-3-yl)-2,2-dimethylpropanoic Acid] | 61500 | 19900
Cc1ccc([C@@H](CC(=O)O)c2cc(OC(F)F)c3c(c2)nnn3C)cc1CN1C[C@H]2CCCN2c2ncccc2S1(=O)=O (single isomer, unassigned) [Example 248, (*R)-3-(7-(Difluoromethoxy)-1-methyl-1H-benzo[d][1,2,3]triazol-5-yl)-3-(3-(((R)-5,5-dioxido-7a,8,9,10-tetrahydropyrido[2,3-f]pyrrolo[2,1-d][1,2,5]thiadiazepin-6(7H)-yl)methyl)-4-methylphenyl)propanoic Acid] | < 1 | 48.6
Cc1c(C(CC(=O)O)c2ccc(Cl)c(CN3CC4CCCCN4c4ncc(F)cc4S3(=O)=O)c2)ccn2c(C(F)(F)F)nnc12 (stereo not drawn) [Example 92, 3-(4-Chloro-3-(((*S)-3-fluoro-5,5-dioxido-7,7a,8,9,10,11-hexahydro-6H-dipyrido[2,1-d:2′,3′-f][1,2,5]thiadiazepin-6-yl)methyl)phenyl)-3-(8-methyl-3-(trifluoromethyl)-[1,2,4]triazolo[4,3-a]pyridine-7-yl)propanoic Acid] | < 1 | 28.6

The next lines start with results.

Kd [1] [nM] | SMILES | EC50 [2] [nM]
< 1 | Cc1ccc([C@H](CC(=O)O)c2ccn3c(C(F)(F)F)nnc3c2C)nc1CN1CC2(CC2)Oc2ncc(F)cc2S1(=O)=O (single isomer, unassigned) [Example 510, (*R)-3-(6-((8′-Fluoro-1′,1′-dioxidospiro[cyclopropane-1,4′-pyrido[2,3-b][1,4,5]oxathiazepin]-2′(3′H)-yl)methyl)-5-methylpyridin-2-yl)-3-(8-methyl-3-(trifluoromethyl)-[1,2,4]triazolo[4,3-a]pyridin-7-yl)propanoic Acid] | 314
< 1 | Cc1ccc(C(CC(=O)O)c2ccn3c(C(F)F)nnc3c2C)cc1CN1CC2(CC2)Oc2ncc(Cl)cc2S1(=O)=O (stereo not drawn) [Example 529, 3-(3-((8′-Chloro-1′,1′-dioxidospiro[cyclopropane-1,4′-pyrido[2,3-b][1,4,5]oxathiazepin]-2′(3′H)-yl)methyl)-4-methylphenyl)-3-(3-(difluoromethyl)-8-methyl-[1,2,4]triazolo[4,3-a]pyridin-7-yl)propanoic Acid] | 29.1
0.97 | Cc1ccc([C@H](c2ccn3c(C(F)(F)F)nnc3c2C)C(C)(C)C(=O)O)cc1CN1CC2(CCOCC2)Oc2nc(OCCCO)ccc2S1(=O)=O (single isomer, unassigned) [Example 51, (*R) 3-(3-((7′-(3-Hydroxypropoxy)-1′,1′-dioxido-2,3,5,6-tetrahydrospiro[pyran-4,4′-pyrido[2,3-b][1,4,5]oxathiazepin]-2′(3′H)-yl)methyl)-4-methylphenyl-2,2′-dimethyl-3-(8-methyl-3-trifluoromethyl)-[1,2,4]triazolo[4,3-a]pyridine-7-yl)propanoic Acid] | 646
< 1 | Cc1ccc([C@@H](c2ccn3c(C(F)F)nnc3c2C)C(C)(C)C(=O)O)nc1CN1CC2(COC2)Oc2ncccc2S1(=O)=O (single isomer, unassigned) [Example 610, (*S)-3-(3-(Difluoromethyl)-8-methyl-[1,2,4]triazolo[4,3-a]pyridin-7-yl)-3-(6-((1′,1′-dioxidospiro[oxetane-3,4′-pyrido[2,3-b][1,4,5]oxathiazepin]-2′(3′H)-yl)methyl)-5-methylpyridin-2-yl)-2,2-dimethylpropanoic Acid] | 4.42
< 1 | CCn1nnc2c(C)c(C(CC(=O)O)c3ccc(C)c(CN4C[C@H]5CCCN5c5ncccc5S4(=O)=O)n3)ccc21 (stereo partly drawn) [Example 296, 3-(6-(((R)-5,5-Dioxido-7a,8,9,10-tetrahydropyrido[2,3-f]pyrrolo[2,1-d][1,2,5]thiadiazepin-6(7H)-yl)methyl)-5-methylpyridin-2-yl)-3-(1-ethyl-4-methyl-1H-benzo[d][1,2,3]triazol-5-yl)propanoic Acid] | 13.6
< 1 | Cc1ccc([C@@H](CC(=O)O)c2ccc3c(nnn3CC3CC3)c2C)cc1CN1C[C@@H]2CCCCN2c2ncccc2S1(=O)=O (single isomer, unassigned) [Example 233, (*R)-3-(1-(Cyclopropylmethyl)-4-methyl-1H-benzo[d][1,2,3]triazol-5-yl)-3-(3-(((*S)-5,5-dioxido-7,7a,8,9,10,11-hexahydro-6H-dipyrido[2,1-d:2′,3′-f][1,2,5]thiadiazepin-6-yl)methyl)-4-methylphenyl)propanoic Acid] | 80
< 1 | Cc1cnc2c(c1)S(=O)(=O)N(Cc1cc(C(c3ccn4c(C(F)(F)F)nnc4c3C)C(C)(C)C(=O)O)ncc1C)CC1(CC1)O2 (racemic) [Example 587, (R/S)-2,2-Dimethyl-3-(8-methyl-3-(trifluoromethyl)-[1,2,4]triazolo[4,3-a]pyridin-7-yl)-3-(5-methyl-4-((8′-methyl-1′,1′-dioxidospiro[cyclopropane-1,4′-pyrido[2,3-b][1,4,5]oxathiazepin]-2′(3′H)-yl)methyl)pyridin-2-yl)propanoic Acid] | 17.4
< 1 | Cc1cnc(C(c2ccn3c(C(F)(F)F)nnc3c2C)C(C)(C)C(=O)O)cc1CN1CC2(CCOCC2)Oc2ncccc2S1(=O)=O (racemic) [Example 55, (R/S)-3-(4-((1′,1′-Dioxido-2,3,5,6-tetrahydrospiro[pyran-4,4′-pyrido[2,3-b][1,4,5]oxathiazepin]-2′(3′H)-yl)methyl)-5-methylpyridin-2-yl)-2,2-dimethyl-3-(8-methyl-3-(trifluoromethyl)-[1,2,4]triazolo[4,3-a]pyridin-7-yl)propanoic Acid] | 124
< 1 | Cc1ccc([C@@H](CC(=O)O)c2ccc3c(nnn3CC3CC3)c2C)cc1CN1C[C@H]2CCCN2c2ncccc2S1(=O)=O (single isomer, unassigned) [Example 401, (*R)-3-(1-(Cyclopropylmethyl)-4-methyl-1H-benzo[d][1,2,3]triazol-5-yl)-3-(3-(((R)-5,5-dioxido-7a,8,9,10-tetrahydropyrido[2,3-f]pyrrolo[2,1-d][1,2,5]thiadiazepin-6(7H)-yl)methyl)-4-methylphenyl)propanoic acid] | 2.7
0.024 | Cc1ccc([C@@H](CC(=O)O)c2ccc3c(nnn3CC3CC3)c2C)cc1CN1C[C@]2(C)CCCN2c2ncccc2S1(=O)=O (relative stereo) [Example 11, 3-(1-(Cyclopropylmethyl)-4-methyl-1H-benzo[d][1,2,3]triazol-5-yl)-3-(4-methyl-3-(((*S)-7a-methyl-5,5-dioxido-7a,8,9,10-tetrahydropyrido[2,3-f]pyrrolo[2,1-d][1,2,5]thiadiazepin-6(7H)-yl)methyl)phenyl)propanoic Acid] | 4.2
